Measured values from publication PMC2753751 (Bioorganic & medicinal chemistry letters, 2009).

Tests used:
[1] = system: A549 human lung carcinoma cell line; assay: cytotoxicity with A549 cell monolayers; assay type: cell-based
Pneumocystis carinii [2] = conditions: read-out: IC50 P. carinii; P. carinii obtained from rat lungs; ref [15]; cited from earlier work
Pneumocystis carinii [3] = assay: in vitro inhibition of Pneumocystis carinii; assay type: cell-based; conditions: ratio of cytotoxic A549 IC50 to P. carinii IC50
[4] = system: Trypanosoma brucei rhodesiense KETRI 243; assay: in vitro inhibition of Trypanosoma brucei rhodesiense; assay type: cell-based; conditions: T.b. rhodesiense KETRI 243 versus T.b. brucei LAB 110
Pneumocystis = conditions: immunosuppressed mouse, 20 mg/kg and 40 mg/kg doses; ref [1]; cited from earlier work

Molecule	cytotoxicity against the A549 cell line (in words) [1]	IC50 (Pneumocystis carinii [2])	further results
N=C(N)c1ccc(NC(=O)CCCCC(=O)Nc2cccc(C(=N)N)c2)cc1 [Compound 8]	very low cytoxicity	–	–
N=C(N)c1ccc(OCCCCCOc2ccc(C(=N)N)cc2)cc1 [Pentamidine, reference compound]	–	0.5 µM	–
N=C(N)c1ccc(NC(=O)CCCCCC(=O)Nc2ccc(C(=N)N)cc2)cc1 [Compound 9]	very low cytoxicity	–	–
N,N′-bis[4-(aminoiminomethyl)phenyl] hexanediamide [Compound 4]	–	0.002 µM	selectivity index for P. carinii (SIP.c) (Pneumocystis carinii [3]): 596,500; IC50 [1]: 1190 µM
N,N′-bis[4-(aminoiminomethyl)phenyl] pentanediamide, dihydrochloride salt [Compound 2]	very low cytoxicity	0.003 µM	fold less active against the resistant strain [4]: about 11 fold; selectivity index for P. carinii (SIP.c) (Pneumocystis carinii [3]): 758,667; reductions in organism burden (Pneumocystis): > 1,000 fold
N=C(N)c1ccc(NC(=O)CCCCCCC(=O)Nc2ccc(C(=N)N)cc2)cc1 [Compound 10]	very low cytoxicity	–	–
N=C(N)c1ccc(NC(=O)CCCCCCCCC(=O)Nc2ccc(C(=N)N)cc2)cc1 [Compound 12]	very low cytoxicity	–	–
